Our source for the TGI and GI50 values is PubChem BioAssay (NCI).

Among the test systems are SK-MEL-28 melanoma; HCT-116 colon; EKVX NSCLC; K-562 leukemia; SK-MEL-2 melanoma; M14 melanoma; CCRF-CEM leukemia; ACHN renal; DU-145 prostate; KM12 colon.
Holding throughout (assay): inhibition of tumour cell growth, NCI panel, 48 h

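96-well plates; 48 h exposure; 5 concentrations. Endpoints by linear interpolation between flanking doses. Not reached: highest tested concentration assigned. The concentration for 50% growth inhibition is given as GI50. The concentration for full growth arrest is given as TGI.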

In the case of `COc1cc([N+](=O)[O-])c(S(=O)(=O)O)cc1-n1nc(-c2ccccc2)n[n+]1-c1cc(S(=O)(=O)[O-])c([N+](=O)[O-])cc1OC`, the TGI in the test with SK-MEL-28 melanoma, with HCT-116 colon, in the test with EKVX NSCLC, with K-562 leukemia, with SK-MEL-2 melanoma and in the test on M14 melanoma was over 100 µM each time. The TGI with CCRF-CEM leukemia, in the test with ACHN renal, in the test on DU-145 prostate and in the test with KM12 colon was over 100 µM in each case.
On to `CCc1nc2cc(/C=C/C(=O)NO)c(F)cc2c(=O)n1CCc1ccccc1`, for which the GI50 with SK-MEL-28 melanoma is 1.37 µM; in the test on HCT-116 colon, 0.313 µM; in the test on EKVX NSCLC, 2.36 µM; in the test with K-562 leukemia, 1.65 µM; in the test with SK-MEL-2 melanoma, 2.64 µM; with M14 melanoma, 1.15 µM. Besides, the GI50 in the test with CCRF-CEM leukemia was 0.564 µM; with ACHN renal it was 0.744 µM; in the test on DU-145 prostate, 0.666 µM; with KM12 colon, 2.14 µM. Besides, the TGI in the test on SK-MEL-28 melanoma was 6.97 µM; in the test on HCT-116 colon, 2.91 µM; with EKVX NSCLC, 10.7 µM; in the test on K-562 leukemia, over 100 µM; in the test on SK-MEL-2 melanoma it was 9.37 µM; in the test with M14 melanoma it was 3.8 µM. Also, the TGI in the test with CCRF-CEM leukemia is over 100 µM; with ACHN renal, 2.9 µM; in the test with DU-145 prostate, 10.5 µM; with KM12 colon, 15.5 µM.
For the compound `CCCCn1c(=O)c(/C=C/C(=O)/C=C/c2ccc(O)c(OC)c2)cc2ccc(Cl)cc21`, the GI50 was 1.93 µM in the test on SK-MEL-28 melanoma; 1.52 µM with HCT-116 colon; 2.18 µM in the test on EKVX NSCLC; 2.82 µM in the test on K-562 leukemia; 2.67 µM in the test on SK-MEL-2 melanoma; 1.86 µM in the test on M14 melanoma. For the same compound, the GI50 was 2.79 µM in the test on CCRF-CEM leukemia, 1.6 µM in the test with ACHN renal, 1.79 µM in the test on DU-145 prostate and 1.89 µM in the test with KM12 colon. In addition, the TGI in the test on SK-MEL-28 melanoma worked out at 4.12 µM; with HCT-116 colon it was 3 µM; in the test on EKVX NSCLC it was 4.58 µM; in the test with K-562 leukemia it was 12.8 µM; in the test with SK-MEL-2 melanoma, 6.32 µM; in the test on M14 melanoma, 4.17 µM. The TGI in the test with CCRF-CEM leukemia worked out at 22 µM; with ACHN renal it was 2.95 µM; with DU-145 prostate, 3.92 µM; with KM12 colon, 3.66 µM.
On to `COc1cc(C)c(N(C)C(=O)CN(C)C)cc1Nc1nc(Nc2cccc(F)c2C(N)=O)c2cc[nH]c2n1`, for which the GI50 is over 25 µM with SK-MEL-28 melanoma; 15.7 µM in the test on HCT-116 colon; over 25 µM with EKVX NSCLC; 18.1 µM with K-562 leukemia; over 25 µM with SK-MEL-2 melanoma; over 25 µM in the test on M14 melanoma. Further, the GI50 with CCRF-CEM leukemia was over 19.3 µM; in the test on ACHN renal, over 25 µM; in the test on DU-145 prostate, over 25 µM; with KM12 colon it was over 25 µM. Moreover, the TGI in the test with SK-MEL-28 melanoma, in the test with HCT-116 colon, in the test with EKVX NSCLC, in the test with K-562 leukemia, in the test on SK-MEL-2 melanoma and in the test with M14 melanoma was over 25 µM throughout. The TGI with CCRF-CEM leukemia, in the test with ACHN renal, in the test on DU-145 prostate and in the test with KM12 colon was over 25 µM throughout.
Consider `O=C(/C=C/c1ccccc1)c1ccc(O)c(CN2CCN(c3cc4c(cc3F)c(=O)c(C(=O)O)cn4C3CC3)CC2)c1`, for which the GI50 was 2.13 µM in the test on SK-MEL-28 melanoma; 0.43 µM in the test on HCT-116 colon; 3.66 µM in the test with EKVX NSCLC; 0.278 µM in the test with K-562 leukemia; 3.3 µM in the test with SK-MEL-2 melanoma; 1 µM in the test with M14 melanoma. In addition, the GI50 was 0.598 µM with CCRF-CEM leukemia, 1.9 µM with ACHN renal, 1.53 µM with DU-145 prostate and 1.69 µM in the test on KM12 colon. In addition, the TGI in the test with SK-MEL-28 melanoma, in the test with HCT-116 colon, in the test on EKVX NSCLC, in the test on K-562 leukemia, with SK-MEL-2 melanoma and in the test on M14 melanoma was over 100 µM each time. The TGI with CCRF-CEM leukemia is over 100 µM; with ACHN renal, 13.9 µM; with DU-145 prostate it was over 100 µM; in the test with KM12 colon, 21 µM.
Take `C=C(C)[C@@H]1CC[C@]2(C)[C@H](CC=C3[C@@H]4CC(C)(C)CC[C@]4(C(=O)OC)CC[C@]32C)[C@@]1(C)CC/C(N)=N/O`: the GI50 was 2.3 µM with SK-MEL-28 melanoma; 1.61 µM in the test on HCT-116 colon; 2.11 µM in the test with EKVX NSCLC; 2.47 µM with K-562 leukemia; 1.78 µM with SK-MEL-2 melanoma; 1.78 µM in the test on M14 melanoma. Also, the GI50 was 2.19 µM with CCRF-CEM leukemia, 2.05 µM in the test with ACHN renal, 1.95 µM in the test with DU-145 prostate and 1.68 µM in the test with KM12 colon. Also, the TGI in the test on SK-MEL-28 melanoma was 5.57 µM; with HCT-116 colon, 3.05 µM; with EKVX NSCLC it was 6.8 µM; in the test on K-562 leukemia, over 100 µM; with SK-MEL-2 melanoma, 3.95 µM; with M14 melanoma, 3.86 µM. Besides, the TGI with CCRF-CEM leukemia amounted to 6.2 µM; with ACHN renal, 5.81 µM; in the test with DU-145 prostate, 4.28 µM; in the test on KM12 colon, 3.6 µM.
With `c1ccc(CN2CCC3(CC2)ONC2=NCCN23)cc1`, the GI50 in the test with SK-MEL-28 melanoma was over 100 µM; in the test on HCT-116 colon, 49.1 µM; in the test on EKVX NSCLC it was over 100 µM; with K-562 leukemia it was 42.8 µM; in the test with SK-MEL-2 melanoma it was over 100 µM; in the test with M14 melanoma, over 100 µM. For the same compound, the GI50 in the test with CCRF-CEM leukemia was 31 µM; with ACHN renal, 49.7 µM; with DU-145 prostate it was over 100 µM; in the test on KM12 colon, 58.5 µM. Moreover, the TGI in the test on SK-MEL-28 melanoma, in the test on HCT-116 colon, with EKVX NSCLC, with K-562 leukemia, in the test with SK-MEL-2 melanoma and in the test with M14 melanoma was over 100 µM each time. Further, the TGI with CCRF-CEM leukemia, in the test on ACHN renal, with DU-145 prostate and in the test on KM12 colon was over 100 µM throughout.
Take `COc1cc2c(c(OC)c1OC)C(=O)c1c-2n(CCCN)c(=O)c2cc([N+](=O)[O-])ccc12`: the GI50 is 1.76 µM in the test on SK-MEL-28 melanoma; 0.128 µM with HCT-116 colon; 3.02 µM with EKVX NSCLC; 2.86 µM with K-562 leukemia; 5.45 µM in the test with SK-MEL-2 melanoma; 1.35 µM in the test on M14 melanoma. For the same compound, the GI50 with CCRF-CEM leukemia is 0.285 µM; with DU-145 prostate, 0.962 µM; in the test on KM12 colon it was 0.161 µM. In addition, the TGI came to 3.97 µM with SK-MEL-28 melanoma; 0.274 µM in the test on HCT-116 colon; 8.32 µM in the test on EKVX NSCLC; 7.98 µM with K-562 leukemia; 11.6 µM in the test on SK-MEL-2 melanoma; 2.82 µM in the test with M14 melanoma. For the same compound, the TGI is 0.834 µM in the test on CCRF-CEM leukemia, 2.31 µM in the test with DU-145 prostate and 0.369 µM with KM12 colon.
In the case of `O=c1cc(-c2ccccc2)oc2cc(OCc3cn(Cc4ccc(F)cc4)nn3)cc(O)c12`, the GI50 is 5.91 µM in the test on HCT-116 colon; 63.8 µM in the test on EKVX NSCLC; over 100 µM with K-562 leukemia; 6.8 µM in the test on SK-MEL-2 melanoma; over 100 µM with M14 melanoma; over 100 µM with CCRF-CEM leukemia. The GI50 in the test with ACHN renal is 6.23 µM; in the test on DU-145 prostate it was over 100 µM; with KM12 colon, over 100 µM. The TGI in the test on HCT-116 colon is over 100 µM; in the test with EKVX NSCLC, over 100 µM; in the test with K-562 leukemia it was over 100 µM; with SK-MEL-2 melanoma, 36.1 µM; in the test with M14 melanoma it was over 100 µM; in the test with CCRF-CEM leukemia, over 100 µM. For the same compound, the TGI with ACHN renal, with DU-145 prostate and in the test on KM12 colon was over 100 µM in each case.
As for `O=c1c2ccccc2c(C=NCCNCCO)c2oc3ccccc3n12`, the GI50 in the test with EKVX NSCLC was 9.3 µM; with K-562 leukemia it was 4.31 µM; with SK-MEL-2 melanoma it was 21.3 µM; in the test with M14 melanoma, 15.6 µM; with CCRF-CEM leukemia, 1.47 µM; with ACHN renal, 3.54 µM. Moreover, the GI50 in the test on DU-145 prostate is 12.1 µM; in the test with KM12 colon, 10.4 µM. Moreover, the TGI in the test on EKVX NSCLC was found to be 21.2 µM; in the test on K-562 leukemia, 16.4 µM; in the test on SK-MEL-2 melanoma it was 50.6 µM; with M14 melanoma it was 29.5 µM; in the test with CCRF-CEM leukemia, 16.1 µM; with ACHN renal, 14.9 µM. Moreover, the TGI with DU-145 prostate turned out to be 24.5 µM; in the test on KM12 colon, 22.1 µM.
With `COc1ccc(CNCCCN2C(=O)c3ccc4c5c(ccc(c35)C2=O)C(=O)N(CCCNCCCCNCCCN)C4=O)c(OC)c1OC`, the GI50 was 1.89 µM in the test with SK-MEL-28 melanoma; 0.534 µM with HCT-116 colon; 4.05 µM in the test with EKVX NSCLC; 0.761 µM in the test with K-562 leukemia; 1.72 µM in the test with SK-MEL-2 melanoma; 1.66 µM in the test on M14 melanoma. Also, the GI50 was 1.94 µM in the test on CCRF-CEM leukemia, 1.55 µM in the test on DU-145 prostate and 1.27 µM in the test with KM12 colon. In addition, the TGI worked out at 4.81 µM with SK-MEL-28 melanoma; 3.77 µM in the test on HCT-116 colon; 19.3 µM in the test with EKVX NSCLC; 12.7 µM with K-562 leukemia; 4.11 µM in the test on SK-MEL-2 melanoma; 3.57 µM in the test with M14 melanoma. The TGI was determined as 17.8 µM in the test on CCRF-CEM leukemia, 3.44 µM in the test with DU-145 prostate and 7.53 µM with KM12 colon.
